We go through four molecules from ChEMBL document CHEMBL1201862, “PubChem BioAssay data set” (2004).

Assay [1] in a line: NIH-3T3 fibroblast cytotoxicity, dose response, cytotoxicity control, cell-based, fluorescence, Alamar Blue, secondary assay (AID 2327).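 Also: NIH-3T3 mouse fibroblasts cultured with fluconazole at 8 µg/mL.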 The format is functional.
Assay [2] deals with Streptococcus sp. 'group A'. Description: growth inhibition of control SK(-) GAS strain, dose response, counter-screen for streptokinase expression inhibitor project, luminescence, kanamycin, BacTiterGlo, confirmation (AID 1900). Format: functional, organism-based. For orientation: The purpose of a counterscreen is to sort out artefacts and off-target activity.
A short description of assay [3]: C. albicans growth with fluconazole, confirmation, fluorescence, retest (AID 2467). The format is functional, cell-based.
The nature of assay [4]: inhibitors of intracellular T. cruzi replication, confirmation, NIH3T3 host cells, beta-gal luminescence (AID 2044).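 Also: intracellular parasites grown in NIH/3T3 mouse fibroblasts as host cells; luminescent beta-galactosidase reporter signal from transgenic T. cruzi replicating inside host cells; inhibitors lower the luminescence signal.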 Format: functional, cell-based.
A short description of assay [5]: microbe, parasite or virus in culture. The settings on record: Mycobacterium tuberculosis. Format: functional.
Assay [6] has as its target T1, Serine/threonine-protein phosphatase (Candida dubliniensis (strain CD36 / CBS 7987 / NCPF 3949 / NRRLY-17841) (Yeast), UniProt B9W6M3).
T1 sequence (B9W6M3 whole entry): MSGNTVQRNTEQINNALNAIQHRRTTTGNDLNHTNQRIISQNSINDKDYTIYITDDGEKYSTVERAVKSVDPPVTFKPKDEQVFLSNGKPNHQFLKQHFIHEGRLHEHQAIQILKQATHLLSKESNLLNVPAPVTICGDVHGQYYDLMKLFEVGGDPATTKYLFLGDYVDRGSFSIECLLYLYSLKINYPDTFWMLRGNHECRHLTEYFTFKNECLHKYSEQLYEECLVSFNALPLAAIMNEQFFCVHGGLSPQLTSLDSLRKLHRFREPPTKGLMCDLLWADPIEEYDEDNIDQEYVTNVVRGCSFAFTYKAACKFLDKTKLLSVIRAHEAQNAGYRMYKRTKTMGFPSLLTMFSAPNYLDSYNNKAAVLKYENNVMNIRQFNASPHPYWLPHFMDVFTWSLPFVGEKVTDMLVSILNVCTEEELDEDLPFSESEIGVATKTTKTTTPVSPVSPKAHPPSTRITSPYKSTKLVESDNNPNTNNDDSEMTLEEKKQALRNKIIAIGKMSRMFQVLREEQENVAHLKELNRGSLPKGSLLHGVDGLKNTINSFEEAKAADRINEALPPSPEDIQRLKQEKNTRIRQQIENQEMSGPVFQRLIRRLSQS
Description: calcineurin pathway inhibitors in yeast reporter, dose response, S. cerevisiae, CDRE-lacZ, luminescence, secondary (AID 2388).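 Also: yeast reporter cells carrying a calcineurin-responsive lacZ construct stimulated with calcium chloride; luminescent beta-galactosidase reporter signal in whole cells rather than isolated phosphatase activity; potency for inhibition where a drop in reporter signal means calcineurin blockade.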 The format is functional, cell-based.

Assay [7] is described as follows: cytotoxicity toward NIH3T3 fibroblasts, dose response, counter-screen, cell-based, ATP luminescence, mouse fibroblasts (AID 2010).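 Also: cells exposed to compound for about 90 hours before reading.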 The format is functional.
The subject of the next assay is Streptococcus. Description: Group A Streptococcus viability loss, dose response, counter-screen for streptokinase expression inhibitor project, luminescence, BacTiterGlo (AID 1915).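 Also: potency for reduction of bacterial viability or growth.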 Format: functional, organism-based.
Assay [8] addresses Heat shock protein HSP 90-alpha (Homo sapiens, UniProt P07900). Format: functional, organism-based.
The target in assay [9] is T1, Serine/threonine-protein phosphatase. Description: Fluorescence Cell-Based Secondary Assay to Identify Inhibitors of Calcineurin. [Related pubchem assays (depositor defined):AID1979, AID2007]. Format: functional.
The next assay deals with INS1. Description: beta cell apoptosis inhibitors, cytokine rescue, dose response, luminescence, retest (AID 449756).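 Also: cell death triggered by IL-1 beta plus TNF-alpha plus IFN-gamma mixture; protective hits raise ATP signal compared with cytokine alone wells.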 Format: functional, cell-based. The settings on record: Rattus norvegicus.
For the next assay, the system named is Vero. Description: cells. Format: functional. The settings on record: Chlorocebus sabaeus.
The target of assay [10] is ATP-dependent molecular chaperone HSP82 (Candida albicans (strain WO-1) (Yeast), UniProt C4YTQ8). Description: loss of DOC-induced GRE-beta-galactosidase reporter signal, dose response, Hsp90 inhibitor project, S. cerevisiae, luminescence (AID 2400).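 Also: beta-galactosidase luminescence from glucocorticoid response element reporter as proxy for Hsp90 function; inhibitor potency where signal loss means Hsp90 inhibition.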 The format is functional, cell-based.
A further assay addresses T2, Estrogen receptor (Homo sapiens, UniProt P03372).
T2 sequence (P03372 whole entry): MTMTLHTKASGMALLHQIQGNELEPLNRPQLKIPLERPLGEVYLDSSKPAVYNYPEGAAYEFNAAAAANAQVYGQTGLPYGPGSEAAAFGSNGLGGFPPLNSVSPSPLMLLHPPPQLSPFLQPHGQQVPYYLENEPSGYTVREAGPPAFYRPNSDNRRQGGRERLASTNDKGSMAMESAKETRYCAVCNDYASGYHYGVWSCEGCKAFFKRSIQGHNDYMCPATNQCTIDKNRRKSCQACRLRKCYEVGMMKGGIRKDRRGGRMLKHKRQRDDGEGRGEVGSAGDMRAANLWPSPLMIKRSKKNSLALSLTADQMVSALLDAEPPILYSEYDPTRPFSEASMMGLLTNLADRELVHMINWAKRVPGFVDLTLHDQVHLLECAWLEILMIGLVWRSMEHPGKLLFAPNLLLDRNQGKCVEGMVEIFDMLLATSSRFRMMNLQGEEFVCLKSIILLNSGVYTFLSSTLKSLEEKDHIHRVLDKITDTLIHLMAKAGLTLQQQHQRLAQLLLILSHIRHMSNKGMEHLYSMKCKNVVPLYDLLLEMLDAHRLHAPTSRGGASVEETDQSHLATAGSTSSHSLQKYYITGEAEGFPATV

In assay [11] the target is Mitogen-activated protein kinase 10 (Homo sapiens, UniProt P53779). Description: Dose response biochemical screening assay for inhibitors of c-Jun N-Terminal Kinase 3 (JNK3). [Related pubchem assays: 746 ].
Another assay has as its target Trypsin (Sus scrofa, UniProt P00761). Description: porcine trypsin inhibitors, dose response, selectivity assay for Rce1 protease inhibitor project, biochemical, quenched peptide fluorescence, cherry-pick (AID 488789).
For the next assay, the target named is T3, CAAX prenyl protease 2 (Saccharomyces cerevisiae S288c, UniProt Q03530).
T3 sequence (Q03530 whole entry): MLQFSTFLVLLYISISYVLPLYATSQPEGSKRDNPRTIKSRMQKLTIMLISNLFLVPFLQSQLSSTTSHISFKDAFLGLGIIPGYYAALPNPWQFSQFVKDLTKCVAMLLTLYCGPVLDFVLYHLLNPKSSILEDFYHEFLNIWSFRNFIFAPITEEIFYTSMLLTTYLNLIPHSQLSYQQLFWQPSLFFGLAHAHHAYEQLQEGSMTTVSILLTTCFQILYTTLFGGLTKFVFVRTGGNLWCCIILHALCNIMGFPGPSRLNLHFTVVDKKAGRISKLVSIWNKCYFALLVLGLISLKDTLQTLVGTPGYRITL
Format: biochemical.

In the next assay the target is CAAX prenyl protease 1 (Saccharomyces cerevisiae S288c, UniProt P47154). Description: Ste24 protease inhibitors, dose response, biochemical, S. cerevisiae, plate reader, cherry-pick (AID 488815).
A further assay has as its target T4, Streptokinase A (Streptococcus pyogenes serotype M1, UniProt P10520).
T4 sequence (P10520 whole entry): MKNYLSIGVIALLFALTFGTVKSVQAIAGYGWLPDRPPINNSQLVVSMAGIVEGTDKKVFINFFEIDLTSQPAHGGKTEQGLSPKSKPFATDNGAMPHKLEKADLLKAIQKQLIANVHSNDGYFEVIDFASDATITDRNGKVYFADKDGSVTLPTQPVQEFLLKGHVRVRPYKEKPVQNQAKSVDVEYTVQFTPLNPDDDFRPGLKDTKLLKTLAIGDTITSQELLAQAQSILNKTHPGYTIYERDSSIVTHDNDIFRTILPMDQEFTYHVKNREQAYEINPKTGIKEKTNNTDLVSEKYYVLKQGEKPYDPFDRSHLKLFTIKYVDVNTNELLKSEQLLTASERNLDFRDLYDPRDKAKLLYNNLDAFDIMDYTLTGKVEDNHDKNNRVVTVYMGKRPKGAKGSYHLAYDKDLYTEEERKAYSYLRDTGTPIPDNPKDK
Description: S. pyogenes streptokinase expression inhibitors, potency, dose response, plasminogen activation absorbance, OD405 (AID 1914).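 Also: secreted streptokinase activity via plasminogen activation per viability signal from cell pellet.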 Format: functional, Streptococcus pyogenes M1 GAS.

Assay [12] concerns the target Intestinal-type alkaline phosphatase (Mus musculus, UniProt P24822). Description: PubChem AID 488875. Format: functional.
The target in assay [13] is T5, Intestinal-type alkaline phosphatase (Homo sapiens, UniProt P09923). Description: human intestinal alkaline phosphatase activators, dose response, biochemical, luminescence, uHTS hits (AID 463120). Format: functional.
The target of assay [14] is T5, Intestinal-type alkaline phosphatase. Description: human IAP activators, dose response, biochemical, luminescent, uHTS hits, set 2 (AID 488817).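 Also: potency of activators that raise enzyme activity.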 The format is functional.
Assay [15] concerns the target T6, Alkaline phosphatase, tissue-nonspecific isozyme (Homo sapiens, UniProt P05186).
T6 sequence (P05186 whole entry): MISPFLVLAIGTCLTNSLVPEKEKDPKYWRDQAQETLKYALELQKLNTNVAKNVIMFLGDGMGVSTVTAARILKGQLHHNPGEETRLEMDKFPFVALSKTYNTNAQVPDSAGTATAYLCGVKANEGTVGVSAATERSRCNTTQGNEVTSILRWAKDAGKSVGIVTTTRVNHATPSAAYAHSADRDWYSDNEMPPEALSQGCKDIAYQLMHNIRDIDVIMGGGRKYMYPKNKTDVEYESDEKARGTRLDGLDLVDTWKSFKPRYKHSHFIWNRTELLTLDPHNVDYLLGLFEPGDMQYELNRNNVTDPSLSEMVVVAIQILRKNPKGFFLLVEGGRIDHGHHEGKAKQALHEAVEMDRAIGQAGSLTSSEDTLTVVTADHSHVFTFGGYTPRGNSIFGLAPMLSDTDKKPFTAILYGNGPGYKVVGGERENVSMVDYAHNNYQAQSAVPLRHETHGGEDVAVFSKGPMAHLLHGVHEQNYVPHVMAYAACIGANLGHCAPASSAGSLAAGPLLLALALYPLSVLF
Description: TNAP enzyme activators, dose response, selectivity assay for human IAP activator project, biochemical, TNAP isozyme, human IAP uHTS hits (AID 488886).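 Also: potency of compounds raising TNAP activity as a selectivity check on IAP activators.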 The format is functional.

A short description of assay [16]: Luminescence Cell-Based/Microorganism Confirmation at Dose of Inhibitors of Trypanosoma cruzi Infection. [Related pubchem assays: 1885, 1968 ]. The format is functional.
Assay [17] is described as follows: Luminescence Cell-Based Secondary HTS screen to identify cytotoxic compounds of NIH3T3 cells. [Related pubchem assays: 1885, 1968 ]. The format is functional.
Assay [18] can be described thus: inhibitors of Trypanosoma cruzi host-cell infection, confirmation, beta-gal luminescence, NIH3T3 host cells (AID 2630). The format is functional, cell-based. The settings on record: Mus musculus.

The structures appear in SMILES notation. Active and inactive are the calls of the source.

T5 sequence (P09923 whole entry): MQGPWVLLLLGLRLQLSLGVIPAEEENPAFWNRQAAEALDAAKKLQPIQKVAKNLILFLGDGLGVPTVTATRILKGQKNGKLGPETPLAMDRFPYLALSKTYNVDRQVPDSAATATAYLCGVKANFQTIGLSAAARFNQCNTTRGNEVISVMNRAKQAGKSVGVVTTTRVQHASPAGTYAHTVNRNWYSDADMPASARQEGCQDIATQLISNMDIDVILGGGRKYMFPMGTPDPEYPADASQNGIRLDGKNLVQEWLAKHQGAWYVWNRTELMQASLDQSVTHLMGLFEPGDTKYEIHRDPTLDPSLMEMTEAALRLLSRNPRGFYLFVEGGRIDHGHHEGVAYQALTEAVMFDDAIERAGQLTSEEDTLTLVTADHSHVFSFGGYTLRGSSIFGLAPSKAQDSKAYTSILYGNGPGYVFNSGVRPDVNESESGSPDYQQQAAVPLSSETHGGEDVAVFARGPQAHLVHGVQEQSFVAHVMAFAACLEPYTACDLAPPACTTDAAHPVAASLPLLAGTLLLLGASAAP
Sequence of Trypsin (P00761 whole entry): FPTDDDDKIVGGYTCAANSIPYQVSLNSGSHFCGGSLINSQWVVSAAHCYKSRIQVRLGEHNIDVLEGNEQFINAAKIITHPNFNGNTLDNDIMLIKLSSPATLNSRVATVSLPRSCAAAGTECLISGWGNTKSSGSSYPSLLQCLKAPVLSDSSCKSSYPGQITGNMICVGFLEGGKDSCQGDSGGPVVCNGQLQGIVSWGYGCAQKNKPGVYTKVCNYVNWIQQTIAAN
Sequence of ATP-dependent molecular chaperone HSP82 (C4YTQ8 whole entry): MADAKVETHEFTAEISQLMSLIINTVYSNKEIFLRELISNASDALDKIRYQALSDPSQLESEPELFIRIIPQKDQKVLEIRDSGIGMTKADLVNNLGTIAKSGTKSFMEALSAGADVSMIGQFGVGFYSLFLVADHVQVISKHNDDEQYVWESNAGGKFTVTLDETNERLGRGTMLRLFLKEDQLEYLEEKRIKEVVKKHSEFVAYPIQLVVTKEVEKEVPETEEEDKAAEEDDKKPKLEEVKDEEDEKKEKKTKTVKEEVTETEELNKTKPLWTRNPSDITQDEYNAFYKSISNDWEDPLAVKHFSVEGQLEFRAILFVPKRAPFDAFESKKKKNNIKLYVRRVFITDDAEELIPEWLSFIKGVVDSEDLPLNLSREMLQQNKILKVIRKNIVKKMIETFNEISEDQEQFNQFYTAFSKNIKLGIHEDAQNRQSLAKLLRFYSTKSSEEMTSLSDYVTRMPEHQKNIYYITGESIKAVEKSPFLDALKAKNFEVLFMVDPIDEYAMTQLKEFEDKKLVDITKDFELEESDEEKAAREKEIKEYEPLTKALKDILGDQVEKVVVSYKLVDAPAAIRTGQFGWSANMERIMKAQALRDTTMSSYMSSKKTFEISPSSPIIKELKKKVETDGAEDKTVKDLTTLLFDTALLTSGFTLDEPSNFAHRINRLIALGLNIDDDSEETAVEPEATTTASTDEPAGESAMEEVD
Sequence of Intestinal-type alkaline phosphatase (Mus musculus, UniProt P24822) (P24822 whole entry): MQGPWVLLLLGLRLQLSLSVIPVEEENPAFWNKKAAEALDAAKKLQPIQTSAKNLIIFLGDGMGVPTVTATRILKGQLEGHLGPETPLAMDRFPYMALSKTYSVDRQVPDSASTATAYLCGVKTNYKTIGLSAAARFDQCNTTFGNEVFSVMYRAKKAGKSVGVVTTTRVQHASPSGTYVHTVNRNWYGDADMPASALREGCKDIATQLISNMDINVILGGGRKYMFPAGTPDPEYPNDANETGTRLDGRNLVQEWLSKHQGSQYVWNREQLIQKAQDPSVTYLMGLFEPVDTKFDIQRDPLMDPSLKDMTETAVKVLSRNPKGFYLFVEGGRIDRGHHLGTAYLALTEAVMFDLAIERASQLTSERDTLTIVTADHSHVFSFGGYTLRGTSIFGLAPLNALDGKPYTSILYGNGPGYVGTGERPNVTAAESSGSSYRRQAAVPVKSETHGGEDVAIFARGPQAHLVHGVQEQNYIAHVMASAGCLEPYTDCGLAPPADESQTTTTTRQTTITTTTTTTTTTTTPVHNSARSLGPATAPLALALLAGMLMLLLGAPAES
Sequence of Mitogen-activated protein kinase 10 (P53779 whole entry): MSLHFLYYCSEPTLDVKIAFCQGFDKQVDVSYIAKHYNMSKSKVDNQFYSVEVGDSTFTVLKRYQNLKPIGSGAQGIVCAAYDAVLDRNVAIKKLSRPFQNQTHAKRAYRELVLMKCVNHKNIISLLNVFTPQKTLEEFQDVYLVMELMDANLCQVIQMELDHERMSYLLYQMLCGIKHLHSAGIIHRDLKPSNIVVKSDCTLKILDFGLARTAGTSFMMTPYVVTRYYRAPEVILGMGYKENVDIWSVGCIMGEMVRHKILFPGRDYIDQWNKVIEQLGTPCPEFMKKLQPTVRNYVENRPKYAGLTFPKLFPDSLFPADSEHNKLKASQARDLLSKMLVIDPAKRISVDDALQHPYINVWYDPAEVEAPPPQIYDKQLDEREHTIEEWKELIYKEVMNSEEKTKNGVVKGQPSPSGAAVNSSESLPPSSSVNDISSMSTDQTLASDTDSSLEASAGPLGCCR
Sequence of CAAX prenyl protease 1 (P47154 whole entry): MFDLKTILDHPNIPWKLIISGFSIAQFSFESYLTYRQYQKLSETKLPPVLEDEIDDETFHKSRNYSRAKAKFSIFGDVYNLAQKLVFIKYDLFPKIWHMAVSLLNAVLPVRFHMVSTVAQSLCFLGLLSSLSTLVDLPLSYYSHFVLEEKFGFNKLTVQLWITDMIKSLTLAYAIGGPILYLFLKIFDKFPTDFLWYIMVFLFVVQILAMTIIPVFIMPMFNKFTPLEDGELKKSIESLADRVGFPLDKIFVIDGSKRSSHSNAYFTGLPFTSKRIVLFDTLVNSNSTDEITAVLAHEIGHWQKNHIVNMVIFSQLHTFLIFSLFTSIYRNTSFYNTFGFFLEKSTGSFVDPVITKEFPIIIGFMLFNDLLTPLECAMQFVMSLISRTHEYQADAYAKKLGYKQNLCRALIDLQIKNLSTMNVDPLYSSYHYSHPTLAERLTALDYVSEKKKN

`O=C(Oc1c(Cl)cc(Cl)c2cccnc12)c1cccs1`: the EC50 (as a rule, the concentration at which the effect is half-maximal) in assay [1] was 27.3 µM (active); in assay [2] it was 1.47 µM (active); in assay [3] it was 0.122 µM (active); in assay [4], 2.41 µM (active); in assay [6] it was > 180 µM (inactive); in assay [7] it was 9.43 µM (active). Besides, the 50% effective concentration (EC50) was 1.27 µM (active) in the assay on Streptococcus, > 285 µM (inactive) in assay [9] and 16 µM (active) in [10]. The CC50 is 17.3 µM (active) in [5] and 16.5 µM (active) with Vero. Further, the values for the AC50 (in [8]; with INS1) were 3.28 µM (active) and 8.83 µM (active), respectively.
Consider `O=C1c2ccccc2NC2=NCCCCN12`, for which the IC50 – broadly, the concentration at which inhibition is half-maximal – on Estrogen receptor is > 50 µM (not active); in assay [11] it was 39.5 µM (not active). For the same molecule, the AC50 (commonly the concentration giving half of the maximal activity seen) at Trypsin is 11.4 µM (active); on CAAX prenyl protease 2 it was 31.1 µM (active); at CAAX prenyl protease 1, 3.9 µM (active).
For the molecule `CC(C)CC(=O)NC(=S)NNC(=O)c1ccc(NC(=O)C2CCCCC2)cc1`, the EC50 in [1] was 43.7 µM (active); in assay [2], 0.517 µM (active); at Streptokinase A, > 150 µM (not active); in assay [3] it was 2.57 µM (active); with Streptococcus, 9.89 µM (active); in assay [12], 43.2 µM (active). The EC50 in [13] is 18.7 µM (active); in assay [14], 58.1 µM (active); in [15] it was 70.2 µM (active).
For `CC(=O)c1cccc(CN2CCCC(CCC(=O)NCc3ccc(F)c(F)c3)C2)c1` (stereo not drawn), the EC50 was 0.069 µM (active) in [16]; < 0.1 µM (active) in assay [4]; > 195 µM (not active) in assay [17]; > 60 µM (not active) in [7]; 0.069 µM (active) in [18]; 0.07 µM (active) in “cells”.
